Assay results as given in US8598078B2, “Condensed anthran I lami de derivatives as insecticides” (Syngenta Crop Protection, LLC, priority 2007, dated 2013).
Where two headings read alike, the source gives them in different places.

Experiments:
[1] = system: Myzus persicae (green peach aphid); test: Activity against Myzus persicae (mixed population, feeding/residual contact activity, preventive), sunflower leaf discs; assay type: in vivo; conditions: foliar, 144 h, read-out: activity (mortality and special effects)
Experimental: (§1) Activity Against Myzus persicae (Green Peach Aphid)
(§2) (Mixed Population, Feeding/Residual Contact Activity, Preventive)
(§3) Sunflower leaf discs were placed on agar in a 24-well microtiter plate and sprayed with test solutions. After drying, the leaf discs were infested with an aphid population of mixed ages. After an incubation period of 6 days, samples were checked for mortality and special effects (e.g. phytotoxicity).

[2] = system: Thrips tabaci (onion thrips); test: Activity against Thrips tabaci (mixed population, feeding/residual contact activity, preventive), sunflower leaf discs; assay type: in vivo; conditions: foliar, 144 h, read-out: activity (mortality and special effects)
Experimental: Activity Against Thrips tabaci (Onion Thrips)
as §2
as §3, with “a thrips” for “an aphid”

[3] = system: Plutella xylostella (diamond back moth); test: Plutella xylostella (larvicide, feeding/residual contact activity, preventive), artificial diet MTP; assay type: in vivo; conditions: 120 h, read-out: activity (larval mortality, antifeedant, growth regulation)
Experimental: Plutella xylostella (Diamond Back Moth)
(§4) (Larvicide, Feeding/Residual Contact Activity, Preventive)
24-well microtiter plate (MTP) with artificial diet was treated with test solutions by pipetting. After drying, the MTP's were infested with larvae (L2) (10-15 per well). After an incubation period of 5 days, samples were checked for larval mortality, antifeedant and growth regulation.

[4] = system: Diabrotica balteata (corn root worm); test: Diabrotica balteata (larvicide, feeding/residual contact activity, preventive), artificial diet MTP; assay type: in vivo; conditions: 120 h, read-out: activity (larval mortality, antifeedant, growth regulation)
Experimental: Diabrotica balteata (Corn Root Worm)
as §4
24-well microtiter plate (MTP) with artificial diet was treated with test solutions by pipetting. After drying, the MTP's were infested with larvae (L2) (6-10 per well). After an incubation period of 5 days, samples were checked for larval mortality, antifeedant and growth regulation.

[5] = system: Nilaparvata lugens (brown rice planthopper); test: Activity against Nilaparvata lugens (larvicide, feeding/contact), rice seedlings; assay type: in vivo; conditions: read-out: activity (mortality, growth regulation, effects on the F1 generation)
Experimental: Activity Against Nilaparvata lugens (Brown Rice Planthopper)
(Larvicide, Feeding/Contact)
Rice seedlings were treated with the diluted test solutions in a spray chamber. After drying, they were infested with 20 N3 nymphs (2 replicates). 6-12 days after the treatment samples were checked for mortality, growth regulation, and effects on the F, generation.

[6] = system: Myzus persicae (green peach aphid); test: Activity against Myzus persicae (mixed population, systemic/feeding activity, curative), pea seedling roots in test solution; assay type: in vivo; conditions: 144 h, read-out: activity (mortality and special effects on the plant)
From the text: as §1
(Mixed Population, Systemic/Feeding Activity, Curative)
Roots of pea seedlings, infested with an aphid population of mixed ages, were placed directly in the test solutions. 6 days after introduction, samples were checked for mortality and special effects on the plant.

[7] = system: Spodoptera littoralis (Egyptian cotton leafworm); test: Activity against Spodoptera littoralis (larvicide, feeding/residual contact activity, preventive), cotton leaf discs; assay type: in vivo; conditions: foliar, 72 h, read-out: activity (mortality, repellent effect, feeding behaviour, growth regulation)
From the text: Activity Against Spodoptera littoralis (Egyptian Cotton Leafworm)
as §4
Cotton leaf discs were placed on agar in a 24-well microtiter plate and sprayed with test solutions. After drying, the leaf discs were infested with 5 L1 larvae. The samples were checked for mortality, repellent effect, feeding behaviour, and growth regulation 3 days after treatment.

[8] = system: Heliothis virescens (tobacco budworm); test: Activity against Heliothis virescens (ovo-larvicide, feeding/contact activity, curative), eggs on artificial diet; assay type: in vivo; conditions: read-out: activity (egg mortality, larval mortality, growth regulation)
Experimental: Activity Against Heliothis virescens (Tobacco Budworm)
(Ovo-Larvicide, Feeding/Contact Activity, Curative)
Eggs (0-24 h old) were placed in 24-well microtiter plate on artificial diet and treated with test solutions by pipetting. After an incubation period of 4 days, samples were checked for egg mortality, larval mortality, and growth regulation.

[9] = 400 ppm, mixed-age aphids on sprayed sunflower leaf discs, 6 days incubation
[10] = 400 ppm, L2 larvae on treated artificial diet, 5 days incubation
[11] = 400 ppm, N3 nymphs on sprayed rice seedlings, 6-12 days after treatment
[12] = 400 ppm, L1 larvae on sprayed cotton leaf discs, 3 days after treatment
[13] = 400 ppm, eggs 0-24 h old on artificial diet, 4 days incubation

## COc1cc(C(=O)Nc2c(C)cc3cn(C(=O)OC(C)(C)C)nc3c2C(=O)NC(C)C)n(-c2ncccc2Cl)n1
other
  melting point: 161 to 162 °C

## COc1cc(C(=O)Nc2c(C)cc3cn(Cc4ccccn4)nc3c2C(=O)NC(C)C)n(-c2ncccc2Cl)n1
other
  melting point: 156 to 160 °C

## CCCCCCCCN(C)C(=O)n1cc2cc(C)c(NC(=O)c3cc(OC)nn3-c3ncccc3Cl)c(C(=O)NC(C)C)c2n1
other
  melting point: 66 to 70 °C

## COc1cc(C(=O)Nc2c(C)cc3cn(-c4nc(Cl)nc(Cl)n4)nc3c2C(=O)NC(C)C)n(-c2ncccc2Cl)n1
other
  melting point: 216 °C (dec.)

## COc1cc(C(=O)Nc2c(C)cc3cn(-c4nc(OC)nc(OC)n4)nc3c2C(=O)NC(C)C)n(-c2ncccc2Cl)n1
other
  melting point: 226 to 230 °C

## CCOC(=O)CSC(=O)n1cc2cc(C)c(NC(=O)c3cc(OC)nn3-c3ncccc3Cl)c(C(=O)NC(C)C)c2n1
other
  melting point: 85 to 86 °C

## COCn1ncc2cc(Cl)c(NC(=O)c3cc(C(F)(F)F)nn3-c3ncccc3Cl)c(C(=O)NC(C)C)c21 [P.2]
[1]
  mortality at 400 ppm: > 80%
[2]
  mortality at 400 ppm: > 80%
[3]
  mortality at 400 ppm: > 80%
[4]
  mortality at 400 ppm: > 80%
[5]
  mortality at 400 ppm: > 80%
[6]
  mortality at 400 ppm: > 80%
[7]
  mortality at 400 ppm: > 80%
[8]
  mortality at 400 ppm: > 80%

## COCCOCn1cc2cc(C)c(NC(=O)c3cc(OC)nn3-c3ncccc3Cl)c(C(=O)NC(C)C)c2n1 [P.12, 6-{[2-(3-chloro-pyridin-2-yl)-5-methoxy-2H-pyrazole-3-carbonyl]-amino}-2-(2-methoxy-ethoxymethyl)-5-methyl-2H-indazole-7-carboxylic acid isopropylamide]
[1]
  mortality at 400 ppm: > 80%
[2]
  mortality at 400 ppm: > 80%
[3]
  mortality at 400 ppm: > 80%
[5]
  mortality at 400 ppm: > 80%
[6]
  mortality at 400 ppm: > 80%
[7]
  mortality at 400 ppm: > 80%
[8]
  mortality at 400 ppm: > 80%

## COCn1ncc2cc(C)c(NC(=O)c3cc(OC)nn3-c3ncccc3Cl)c(C(=O)NC(C)C)c21 [P.19]
[1]
  mortality at 400 ppm: > 80%
[2]
  mortality at 400 ppm: > 80%
[3]
  mortality at 400 ppm: > 80%
[4]
  mortality at 400 ppm: > 80%
[5]
  mortality at 400 ppm: > 80%
[6]
  mortality at 400 ppm: > 80%
[7]
  mortality at 400 ppm: > 80%
[8]
  mortality at 400 ppm: > 80%

## CCCCCCCCCCCCCCCCOCCOCCOC(=O)n1cc2cc(C)c(NC(=O)c3cc(OC)nn3-c3ncccc3Cl)c(C(=O)NC(C)C)c2n1 [P.23]
[1]; [9]
  mortality at 400 ppm: > 80%
[2]; 400 ppm, mixed-age thrips on sprayed sunflower leaf discs, 6 days incubation
  mortality at 400 ppm: > 80%
[3]; [10]
  mortality at 400 ppm: > 80%
[4]; [10]
  mortality at 400 ppm: > 80%
[5]; [11]
  mortality at 400 ppm: > 80%
[7]; [12]
  mortality at 400 ppm: > 80%
[8]; [13]
  mortality at 400 ppm: > 80%

## COc1cc(C(=O)Nc2c(C)cc3cn(C(=O)C(C)(C)C)nc3c2C(=O)NC(C)C)n(-c2ncccc2Cl)n1 [P.26]
[1]
  mortality at 400 ppm: > 80%
[3]
  mortality at 400 ppm: > 80%
[4]
  mortality at 400 ppm: > 80%
[5]
  mortality at 400 ppm: > 80%
[6]
  mortality at 400 ppm: > 80%
[7]
  mortality at 400 ppm: > 80%
[8]
  mortality at 400 ppm: > 80%

## CCCCCCCCCCCCOCCOC(=O)n1cc2cc(C)c(NC(=O)c3cc(OC)nn3-c3ncccc3Cl)c(C(=O)NC(C)C)c2n1 [P.29]
[1]; [9]
  mortality at 400 ppm: > 80%
[3]; [10]
  mortality at 400 ppm: > 80%
[4]; [10]
  mortality at 400 ppm: > 80%
[5]; [11]
  mortality at 400 ppm: > 80%
[6]; 400 ppm, systemic, roots of infested pea seedlings in test solution, 6 days
  mortality at 400 ppm: > 80%
[7]; [12]
  mortality at 400 ppm: > 80%
[8]; [13]
  mortality at 400 ppm: > 80%

## CCCC(C)(C)C(=O)n1cc2cc(C)c(NC(=O)c3cc(OC)nn3-c3ncccc3Cl)c(C(=O)NC(C)C)c2n1 [P.31]
[1]
  mortality at 400 ppm: > 80%
[2]
  mortality at 400 ppm: > 80%
[3]
  mortality at 400 ppm: > 80%
[4]
  mortality at 400 ppm: > 80%
[5]
  mortality at 400 ppm: > 80%
[6]
  mortality at 400 ppm: > 80%
[7]
  mortality at 400 ppm: > 80%
[8]
  mortality at 400 ppm: > 80%
